According to patent US4806680A, “3-halovinylglycine antibacterial agents” (Merck & Co., Inc., priority 1987, dated 1989):
Converted amounts (≈) assume the structure as drawn. Structures can show the parent of a compound that is named as a salt.

How the values were obtained:
S. aureus = assay: Agar dilution assay (M.I.C.); format: cell-based, Staphylococcus aureus; conditions: for MIC: Staphylococcus aureus, read-out: minimum inhibitory concentration (M.I.C.); for antibacterial activity (in words): vs S. aureus
Protocol: (§1) Representative 3-halovinylglycines and amino acid conjugates were tested for antibacterial activity by an agar dilution assay [being an modification of the antagonist-free-medium assay described in: Antimicrobial Agents and Chemotherapy, May 1979, pp 677-683 and pp 684-695]. Compounds assayed include (L) and (D)-3-chlorovinylglycine (HCL salts), (L) norvalyl-(L), (D), and (DL)-3 chlorovinylglycine (CF3 COOH salts), and (L) norvalyl-(L), (D), and (DL)-3 fluorovinylglycine (CF3 COOH) salts.

E. coli DC2 = assay: Agar dilution assay (M.I.C.); format: cell-based; conditions: Escherichia coli, read-out: minimum inhibitory concentration (M.I.C.)
Protocol: as §1

cystathionine synthetase = conditions: synthesis of cystathionine from serine; cited from earlier work
Strep. faecalis = assay: Agar dilution assay (M.I.C.); format: cell-based, Streptococcus faecalis; conditions: vs Strep. faecalis
Protocol: as §1

E. coli = assay: Agar dilution assay (M.I.C.); format: cell-based, Escherichia coli; conditions: vs E. coli
Protocol: as §1

K. pneumoniae = assay: Agar dilution assay (M.I.C.); format: cell-based, Klebsiella pneumoniae; conditions: vs K. pneumoniae
Protocol: as §1

E. Coli alanine racemase = assay: Inhibition of E. coli alanine racemase; format: biochemical
E. coli TEM 2^+ = assay: Agar dilution assay (M.I.C.); format: cell-based; conditions: Escherichia coli, read-out: minimum inhibitory concentration (M.I.C.)
Protocol: as §1

Sal. typhimurium = assay: Agar dilution assay (M.I.C.); format: cell-based; conditions: Salmonella enterica, read-out: minimum inhibitory concentration (M.I.C.)
Protocol: as §1

[1] = system: eleven representative strains of pathogenic bacteria; assay: Agar dilution assay, panel of eleven strains; format: cell-based; conditions: for number of test species against which activity is shown: M.I.C. equal to or less than 256 indicates activity, 11 test species
Protocol: as §1
The antibacterial activity of the representative structure I compounds versus eleven representative strains of pathogenic bacteria is shown in the following Table.

C=C(Cl)C(NC(=O)[C@@H](N)CCC)C(=O)O (mixture of isomers) [(L)-NVA--(DL)-Cl--vinylgly, L-norvalyl-D,L-3-chlorovinylglycine]
MIC (S. aureus): ≤ 250 µg/mL | MIC (E. coli DC2): 4000 µg/mL

C=C(Cl)C(N)C(=O)O (racemic) [racemic 3-chlorovinylglycine, 2-amino-3-chloro-3-butenoic acid]
inactivation of cystathionine synthetase (in words) (cystathionine synthetase): not being an inactivator

C=C(Cl)[C@@H](N)C(=O)O [(D)Cl vinylgly, (D)-3-Chlorovinylglycine hydrochloride]
antibacterial activity (in words) (S. aureus): exhibits antibacterial activity | antibacterial activity (in words) (Strep. faecalis): exhibits antibacterial activity | antibacterial activity (in words) (E. coli): exhibits antibacterial activity | antibacterial activity (in words) (K. pneumoniae): exhibits antibacterial activity | inhibition of alanine racemase (in words) (E. Coli alanine racemase): potent irreversible inhibitor

C=C(Cl)[C@@H](NC(=O)[C@@H](N)CCC)C(=O)O [(L)-NVA--(D)-Cl--vinylgly, L-norvalyl-D-3-chlorovinylglycine]
MIC (E. coli DC2): 32000 µg/mL (≈ 136 mM)

C=C(F)C(NC(=O)[C@@H](N)CCC)C(=O)O (stereo partly drawn) [(L)-NVA--(DL)-F--vinylgly, (L,DL)-Norvalyl-3-fluorovinylglycine trifluoracetate]
MIC (S. aureus): 1000 µg/mL (≈ 4.58 mM) | MIC (E. coli DC2): 4000 µg/mL (≈ 18.3 mM)

C=C(Cl)[C@H](NC(=O)[C@@H](N)CCC)C(=O)O [(L)-NVA--(L)-Cl--vinylgly, (L,L)-Norvalyl 3-chlorovinylglycine trifluoroacetate]
MIC (E. coli DC2): 1000 µg/mL | MIC (E. coli TEM 2^+): 8000 µg/mL | MIC (Sal. typhimurium): 64000 µg/mL | number of test species against which activity is shown [1]: 8 of 11

C=C(F)[C@H](NC(=O)[C@@H](N)CCC)C(=O)O [(L)-NVA--(L)-F--vinylgly, (L,L)-Norvalyl-3-fluorovinylglycine trifluoroacetate]
MIC (E. coli DC2): 2000 µg/mL | MIC (E. coli TEM 2^+): 16000 µg/mL | relative activity in the antibacterial agar dilution assay ([1]; (L,L) versus (L,D) diastereomer): more active | number of test species against which activity is shown [1]: 9 of 11

C=C(Cl)[C@H](N)C(=O)O [(L)Cl vinylgly, L-3-chlorovinylglycine]
antibacterial activity (in words) (S. aureus): exhibits antibacterial activity | antibacterial activity (in words) (Strep. faecalis): exhibits antibacterial activity | antibacterial activity (in words) (K. pneumoniae): exhibits antibacterial activity | inhibition of alanine racemase (in words) (E. Coli alanine racemase): inhibits
